17 compounds from patent publication US7109193B2, “Tricyclic diazepines tocolytic oxytocin receptor antagonists” (Wyeth, priority 2001, dated 2006) can be followed below.

The assay deals with T1, human oxytocin receptor (Homo sapiens, UniProt P30559).
T1 construct: host or cells: CHO cells (pcDNA3.1 vector)
T1 sequence (P30559 1-389): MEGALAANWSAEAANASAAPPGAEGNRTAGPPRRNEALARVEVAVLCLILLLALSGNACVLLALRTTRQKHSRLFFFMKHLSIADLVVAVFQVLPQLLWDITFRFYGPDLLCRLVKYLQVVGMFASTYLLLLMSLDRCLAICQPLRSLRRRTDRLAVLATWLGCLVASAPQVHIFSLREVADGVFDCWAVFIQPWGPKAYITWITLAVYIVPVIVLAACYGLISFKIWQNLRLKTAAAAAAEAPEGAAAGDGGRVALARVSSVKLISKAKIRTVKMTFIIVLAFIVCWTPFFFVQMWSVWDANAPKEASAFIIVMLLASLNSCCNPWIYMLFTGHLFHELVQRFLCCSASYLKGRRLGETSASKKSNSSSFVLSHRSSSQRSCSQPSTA
In words: Oxytocin binding in Chinese Hamster Ovary cell membranes expressing human oxytocin receptors. The settings on record: 100 nM, CHO cell membranes, [3H]oxytocin, values without parentheses; for inhibition at 0.1 µM: read-out: OT % inhibition @ 100% nM. As for the experimental part:
Oxytocin Binding in Chinese Hamster Ovary Cell Membranes Expressing Human Oxytocin Receptors
The trypsin is removed by aspiration and the cells dislodged by tapping. Cell Culture medium (e.g. 30 mL for 1:30 split) is immediately added and mixed well to inactivate trypsin. 1 mL of detached cells is added to new culture flasks containing fresh Cell Culture medium (e.g. into 25 mL per T-150 flask), and mixed gently. The cells are incubated at 37° C. in 5% CO2. The medium is changed at 3 to 4 days interval (or as appropriate). […] All steps are done under sterile conditions. B. Membrane Preparation: The cells are washed twice gently with Hank's Balanced Salt solution (e.g., use 10 mL per T-150 flask). […] The contents are transferred to centrifuge tubes (50 mL size) kept in ice bath. All subsequent steps are done at 4° C. The tubes are centrifuged at 300×g for 15 min (1380 rpm on SORVAL, Model RT6000D, using rotor for 50 mL tubes). The supernatant is discarded and the cells suspended in homogenizing buffer (10 mM Tris-HCl containing 0.25 M sucrose and 1 mM EDTA, pH 7.4) ensuring that the volume of the buffer is about ten times the volume of the cell pellet. The cells are pooled into a centrifuge tube (50 mL) and homogenized with a Polytron at setting 6 for 10 sec. The homogenate is transferred into a Potter-Elvjehm homogenizer and homogenized with 3 strokes. The homogenate is centrifuged at 1500×g for 10 min at 4° C. (3100 rpm using SORVAL, model RT6000D, using rotor for 50 mL tubes). The pellet is discarded. The supernatant is centrifuged at 100,000×g for 60 min. at 4° C. (Beckman L8-80M ultracentrifuge; spin at 37,500 rpm with rotor type 70 Ti for 50 mL tubes; 38,000 rpm with type 80Ti for 15 mL tubes; or 35,800 rpm with rotor type 45Ti). The supernantant is discarded and the pellet suspended in 3 to 4 mL of Tris buffer (50 mM TRIS-HCl, pH 7.4). The protein content is estimated by the Bradford or Lowry method. The volume of the membrane suspension is adjusted with the membrane buffer (50 mM Tris-HCl containing 0.1% BSA and 0.1 mM PMSF) to give 3.0 mg/mL (or as appropriate) of protein. The membranes are aliquoted and stored at −70° C. C. Radioligand Binding Assay: In wells of a 96-well format microtiter plate, is added 90, 110 or 130 μL (to make up a final volume of 200 μL) of assay buffer containing 50 mM of Tris-HCl (pH 7.4), […], 1 mg % aprotinin, 1 mg % leupeptin, 2 mg % 1,10-phenanthroline, 10 mg % trypsin inhibitor, and 0.1 mM PMSF. The inhibitors are added on the day of the experiment. The components are mixed at room temperature, and then kept in ice bath following adjustment of the pH to 7.4. […] For oxytocin and other peptide ligands, 20 μL of 50% DMSO is added and the assay buffer volume is adjusted accordingly. To each well is added 50 μL of frozen membrane suspension thawed immediately prior to use and diluted in assay buffer to the required concentration (equivalent to 25 to 50 μg of protein/well as needed). 20 μL of 8 nM [^3H]oxytocin in the assay buffer, prepared just before use is added and incubated at room temperature for 60 min. shaking the plate on a mechanical shaker for the first 15 min. The incubation is stopped by rapid filtration of the plate contents followed by washing with ice-cold buffer (50 mM Tris-HCl, pH 7.4) using a cell harvester (Tomtek and Printed filtermat-B filter paper). The filter paper is thoroughly dried (7–12 min. in a microwave oven) and impregnated with MeltiLex B/H melt-on scintillation wax sheets and the radioactivity counted in a betaplate scintillation counter.
Binding data is either reported as percent inhibition at a certain concentration or if an IC50 was calculated, as a nanomolar concentration.

For `COc1ccccc1-c1ccc(C(=O)N2Cc3ccc(C(=O)N4CC[C@@H](N(C)C)C4)n3Cc3ccccc32)cc1` [Example 279, [(3R)-3-(Dimethylamino)pyrrolidinyl]{10-[(2′-methoxy[1,1′-biphenyl]-4-yl)carbonyl]-10,11-dihydro-5H-pyrrolo[2,1-c][1,4]benzodiazepin-3-yl}methanone], the “OT % inhibition @ 100% nM” value is 100%.

Take `O=C(NCCCn1ccnc1)c1ccc2n1Cc1ccccc1N(C(=O)c1ccc(-c3cccc4ccccc34)cc1Cl)C2` [Example 134, 10-[2-Chloro-4-(1-naphthyl)benzoyl]-N-[3-(1H-imidazol-1-yl)propyl]-10,11-dihydro-5H-pyrrolo[2,1-c][1,4]benzodiazepine-3-carboxamide]: the inhibition at 0.1 µM came to 15%.

In the case of `COc1ccccc1-c1ccc(C(=O)N2Cc3ccc(C(=O)N4CC[C@@H](N(C)C)C4)n3Cc3ccccc32)cc1OC` [Example 282, {10-[(2,2′-Dimethoxy[1,1′-biphenyl]-4-yl)carbonyl]-10,11-dihydro-5H-pyrrolo[2,1-c][1,4]benzodiazepin-3-yl][(3R)-3-(dimethylamino)pyrrolidinyl]methanone], the “OT % inhibition @ 100% nM” value amounted to 84%.

On to `COc1cccc(-c2cc(OC)c(C(=O)N3Cc4ccc(C(=O)N5CCC[C@H]5CN5CCCC5)n4Cc4ccccc43)cc2Cl)c1` [Example 268, {10-[(6-Chloro-3,3′-dimethoxy[1,1′-biphenyl]-4-yl)carbonyl]-10,11-dihydro-5H-pyrrolo[2,1-c][1,4]benzodiazepin-3-yl}[(2S)-2-(1-pyrrolidinylmethyl)pyrrolidinyl]methanone], for which the “OT % inhibition @ 100% nM” value is 90%.

As for `O=C(c1ccc2n1Cc1ccccc1N(C(=O)c1ccc(-c3cccc4ccccc34)cc1Cl)C2)N1CCC(N2CCCCC2)CC1` [Example 121], the “OT % inhibition @ 100% nM” value is 0%.

As to `COc1cccc(-c2ccc(C(=O)N3Cc4ccc(C(=O)N5CC[C@@H](N(C)C)C5)n4Cc4ccccc43)cc2OC)c1` [Example 283, {10-[(2,3′-Dimethoxy[1,1′-biphenyl]-4-yl)carbonyl]-10,11-dihydro-5H-pyrrolo[2,1-c][1,4]benzodiazepin-3-yl}[(3R)-3-(dimethylamino)pyrrolidinyl]methanone], the “OT % inhibition @ 100% nM” value is given as 91%.

With `Cc1cc(C(=O)N2Cc3ccc(C(=O)N(CCCN(C)C)CCCN(C)C)n3Cc3ccccc32)ccc1-c1ccccc1C(F)(F)F` [Example 3, 10-[(2-Methyl-2′-trifluoromethyl-[1,1′-biphenyl]-4-yl)-carbonyl]-10,11-dihydro-5H-pyrrolo[2,1-c][1,4]benzodiazepine-3-carboxylic acid bis-(3-dimethylamino-propyl)-amide], the inhibition at 0.1 µM turned out to be 37%.

Regarding `Cc1ccccc1-c1ccc(C(=O)N2Cc3ccc(C(=O)N4CCC[C@H]4CN4CCCC4)n3Cc3ccccc32)cc1` [Example 264, {10-[(2′-Methyl[1,1′-biphenyl]-4-yl)carbonyl]-10,11-dihydro-5H-pyrrolo[2,1-c][1,4]benzodiazepin-3-yl}[(2S)-2-(1-pyrrolidinylmethyl)pyrrolidinyl]methanone], the “OT % inhibition @ 100% nM” value turned out to be 94%.

Take `COc1cccc(-c2cc(OC)c(C(=O)N3Cc4ccc(C(=O)N5CCC(N6CCCC6)CC5)n4Cc4ccccc43)cc2Cl)c1` [Example 143, {10-[(6-Chloro-3,3′-dimethoxy[1,1′-biphenyl]-4-yl)carbonyl]-10,11-dihydro-5H-pyrrolo[2,1-c][1,4]benzodiazepin-3-yl}[4-(1-pyrrolidinyl)-1-piperidinyl]methanone]: the inhibition at 0.1 µM came to 69%.

In the case of `COc1cccc(-c2ccc(C(=O)N3Cc4ccc(C(=O)N5CCC(N6CCCCC6)CC5)n4Cc4ccccc43)cc2C)c1` [Example 114, {10-[(2-Methyl-3′-methoxy[1,1′-biphenyl]-4-yl)carbonyl]-10,11-dihydro-5H-pyrrolo[2,1-c][1,4]benzodiazepin-3-yl}[4-(1-piperidinyl)-1-piperidinyl]methanone], the inhibition at 0.1 µM stood at 76%.

`COc1cc(-c2ccccc2C)c(Cl)cc1C(=O)N1Cc2ccc(C(=O)NCCN3CCCCC3)n2Cc2ccccc21` [Example 155, 10-[(6-Chloro-3-methoxy-2′-methyl[1,1′-biphenyl]-4-yl)carbonyl]-N-[2-(1-piperidinyl)ethyl]-10,11-dihydro-5H-pyrrolo[2,1-c][1,4]benzodiazepine-3-carboxamide]: the inhibition at 0.1 µM turned out to be 56%.

Regarding `COc1ccccc1-c1ccc(C(=O)N2Cc3ccc(C(=O)N4CCC(N5CCCCC5)CC4)n3Cc3ccccc32)cc1C` [Example 112, {10-[(2-Methyl-2′-methoxy[1,1′-biphenyl]-4-yl)carbonyl]-10,11-dihydro-5H-pyrrolo[2,1-c][1,4]benzodiazepin-3-yl}[4-(1-piperidinyl)-1-piperidinyl]methanone], the inhibition at 0.1 µM came to 89%.

In the case of “{10-[(2,2′-Dimethoxy[1,1′-biphenyl]-4-yl)carbonyl]-10,11-dihydro-5H-pyrrolo[2,1-c][1,4]benzodiazepin-3-yl}(4-isopropyl-1-piperazinyl)methanone [Example 244]”, the “OT % inhibition @ 100% nM” value came out at 68%.

On to `COc1cc(C(=O)N2Cc3ccc(C(=O)NCCCn4ccnc4)n3Cc3ccccc32)ccc1-c1ccccc1C` [Example 128, N-[3-(1H-Imidazol-1-yl)propyl]-10-[(2-methoxy-2′-methyl[1,1′-biphenyl]-4-yl)carbonyl]-10,11-dihydro-5H-pyrrolo[2,1-c][1,4]benzodiazepine-3-carboxamide], for which the inhibition at 0.1 µM worked out at 43%.

With `COc1cccc(-c2cc(OC)c(C(=O)N3Cc4ccc(C(=O)N5CCC(N6CCCCC6)CC5)n4Cc4ccccc43)cc2Cl)c1` [Example 117, {10-[(6-Chloro-3-methoxy-3′-methoxy[1,1′-biphenyl]-4-yl)carbonyl]-10,11-dihydro-5H-pyrrolo[2,1-c][1,4]benzodiazepin-3-yl}[4-(1-piperidinyl)-1-piperidinyl]methanone], the inhibition at 0.1 µM was found to be 70%.

In the case of `COc1cc(C(=O)N2Cc3ccc(C(=O)N(C)CCCN(C)C)n3Cc3ccccc32)ccc1-n1c(C)ccc1C` [Example 310, N-[3-(Dimethylamino)propyl]-10-[4-(2,5-dimethyl-i H-pyrrol-1-yl)-3-methoxybenzoyl]-N-methyl-10,11-dihydro-5H-pyrrolo[2,1-c][1,4]benzodiazepine-3-carboxamide], the “OT % inhibition @ 100% nM” value worked out at 58%.

Turning to `COc1ccccc1-c1ccc(C(=O)N2Cc3ccc(C(=O)NCCCn4ccnc4)n3Cc3ccccc32)cc1` [Example 126, N-[3-(1H-Imidazol-1-yl)propyl]-10-[(2′-methoxy[1,1′-biphenyl]-4-yl)carbonyl]-10,11-dihydro-5H-pyrrolo[2,1-c][1,4]benzodiazepine-3-carboxamide], the inhibition at 0.1 µM worked out at 43%.

As a reminder, the inhibition is the relative decrease from the control value, in per cent.
